From patent US20240285773A1, “METHODS OF TREATING MYELODYSPLASTIC SYNDROME AND MONITORING THE TREATMENT” (Geron Corporation, priority 2023, published 2024)
[nps] = N3'→P5' thiophosphoramidate linkage; {Palm} = palmitoyl lipid

Assays:
bone marrow RS cells = experiment: Reduction in bone marrow ring sideroblasts; design: species or system human; conditions: in vivo
Excerpt: FIG. 20. […] Also, RBC-TI responders were higher in patients achieving ≥50% reduction in central bone marrow RS.

DNMT3A = experiment: Gene mutation analysis (NGS): DNMT3A VAF and clinical response; assay type: in vivo, human; conditions: imetelstat group
Excerpt: (§1) VAF for the target genes can be determined and/or measured using any convenient methods. In one such method, whole blood collected in an EDTA tube is used to perform Next Generation Sequencing (NGS), for example, using LeukoVantage®. NGS using any other sequencing platform can be used, for example, nanopore sequencing, paired-end sequencing, Ion Torrent sequencing, and single molecule real time (SMRT) sequencing. An MDS gene panel can be used. For example, a gene panel containing one or more of SF3B1, TET2, DNMT3A and ASXL1 can be used. […] The percentage of mutation reads will be reported and can be used to assess the size of the clonal population. VAF is the percentage of sequence reads observed matching a specific DNA variant divided by the overall coverage at that locus. […]
(§2) VAF changes were assessed from blood taken pre- and every 12 weeks post-treatment in patients with greater than or equal to 5% variant allele at baseline and >1 post-baseline assessment. T-tests evaluated group comparison, Fisher's exact test evaluated association, and linear regression evaluated correlation. […]
(§3) Blood samples were collected at baseline and during study visits approximately every 12 weeks. […] The lower limit of sensitivity is 5% mutated alleles in a mixed population; the percentage of mutation reads is reported and used to assess the size of the clonal population.

SF3B1 = experiment: Gene mutation analysis (NGS): SF3B1 VAF and clinical response; assay type: in vivo, human
Excerpt: VAF for the target genes can be determined and/or measured using any convenient methods. In one such method, whole blood collected in an EDTA tube is used to perform Next Generation Sequencing (NGS), for example, using LeukoVantage®. NGS using any other sequencing platform can be used, for example, nanopore sequencing, paired-end sequencing, Ion Torrent sequencing, and single molecule real time (SMRT) sequencing. An MDS gene panel can be used. For example, a gene panel containing one or more of SF3B1, TET2, DNMT3A and ASXL1 can be used. In a specific embodiment, a gene panel that includes the following 36 genes was used: ASXL1, ATM, BCOR, CBL, CEBPA, CSF3R, CUX1, DNMT3A, ETNK1, ETV6, EZH2, FLT3, GATA2, IDH1, IDH2, IKZF1, JAK2, KRAS, NF1, NPM1, NRAS, PHF6, PTEN, PTPN11, RUNX1, SETBP1, SF3B1, SRSF2, STAG2, STAT3, STK11, TET2, TP53, U2AF1, WT1, ZRSR2. The NGS assay can be performed using DNA bait capture methodology on the NextSeq® (Illumina®) platform. Following DNA extraction from leukocytes, a targeted, amplicon-based NGS method is used to detect mutations. […] The percentage of mutation reads will be reported and can be used to assess the size of the clonal population. VAF is the percentage of sequence reads observed matching a specific DNA variant divided by the overall coverage at that locus. Because NGS provides a near random sample, VAF is thus a surrogate measure of the proportion of DNA molecules in the original specimen carrying the variant.
VAF changes were assessed from blood taken pre- and every 12 weeks post-treatment in patients with greater than or equal to 5% variant allele at baseline and >1 post-baseline assessment. T-tests evaluated group comparison, Fisher's exact test evaluated association, and linear regression evaluated correlation. […] The patients achieving ≥8-weeks, ≥24-weeks, and >1-year TI in the imetelstat group were enriched with patients who had ≥50% reductions in SF3B1 and TET2 VAF compared with placebo (FIG. 10).
Blood samples were collected at baseline and during study visits approximately every 12 weeks. Following DNA extraction from leukocytes, a targeted, amplicon-based next generation sequencing was performed at Quest Diagnostics using DNA bait capture methodology on the NextSeq® (Illumina®) platform and a LeukoVantage® MDS Gene Panel covering 36 MDS-relevant genes. The lower limit of sensitivity is 5% mutated alleles in a mixed population; the percentage of mutation reads is reported and used to assess the size of the clonal population.

TET2 = experiment: Gene mutation analysis (NGS): TET2 VAF and clinical response; assay type: in vivo, human; conditions: imetelstat group
Excerpt: as §1, §2, §3

[1] = SF3B1 VAF ≥50% reduction No (N=55)
[2] = SF3B1 VAF ≥50% reduction Yes (N=23)

Imetelstat: first-in-class telomerase inhibitor; synthetic lipid-conjugated 13-mer oligonucleotide N3′→P5′-thiophosphoramidate (TAGGGTTAGACAA; all [nps], 5' {Palm}, sugars by position and methylation of C not given here)
Patients achieving ≥50% reduction in bone marrow RS cells (bone marrow RS cells): 41%
Pearson's r: maximum % reduction in DNMT3A VAF vs maximum change in hemoglobin (DNMT3A; n=13): −0.667
Pearson's r: maximum % reduction in DNMT3A VAF vs duration of TI (DNMT3A; n=18): −0.545
Maximal reduction in SF3B1 VAF (SF3B1; 18 ≥1-year TI responders with mutation data): −6% to −100%
1-Year RBC-TI Yes (SF3B1; [1]): 5.5%
8-Week RBC-TI Yes (SF3B1; [1]): 38.2%
24-Week RBC-TI Yes (SF3B1; [1]): 23.6%
1-Year RBC-TI Yes (SF3B1; [2]): 47.8%
8-Week RBC-TI Yes (SF3B1; [2]): 82.6%
24-Week RBC-TI Yes (SF3B1; [2]): 69.6%
Pearson's r: maximum % reduction in SF3B1 VAF vs maximum change in hemoglobin (SF3B1; imetelstat group, n=67): −0.626
Complete elimination of the SF3B1 VAF, patients (SF3B1; ≥1-year TI responders (of 18)): 7 patients
≥50% SF3B1 VAF reduction (SF3B1; ≥1-year TI responders (of 18)): 72.2%
≥50% SF3B1 VAF reduction, patients (SF3B1; ≥1-year TI responders (of 18)): 13 patients
Pearson's r: maximum % reduction in TET2 VAF vs maximum change in hemoglobin (TET2; n=32): −0.659
Pearson's r: maximum % reduction in TET2 VAF vs duration of TI (TET2; n=38): −0.577
